Values of other authors in patent US9907782B2, “Treatment or prevention of seborrheic keratosis using artemisinin and derivatives thereof” (EPIPHARM AG, priority 2014, dated 2018).
One block for each compound: values may come before it.

Assays:
melanin synthesis = conditions: according to US 2010/0061948 A1, allegedly
tyrosinase = target: T1, tyrosinase (Homo sapiens, UniProt P14679); conditions: according to US 2010/0061948 A1, allegedly
T1 sequence (P14679 19-529): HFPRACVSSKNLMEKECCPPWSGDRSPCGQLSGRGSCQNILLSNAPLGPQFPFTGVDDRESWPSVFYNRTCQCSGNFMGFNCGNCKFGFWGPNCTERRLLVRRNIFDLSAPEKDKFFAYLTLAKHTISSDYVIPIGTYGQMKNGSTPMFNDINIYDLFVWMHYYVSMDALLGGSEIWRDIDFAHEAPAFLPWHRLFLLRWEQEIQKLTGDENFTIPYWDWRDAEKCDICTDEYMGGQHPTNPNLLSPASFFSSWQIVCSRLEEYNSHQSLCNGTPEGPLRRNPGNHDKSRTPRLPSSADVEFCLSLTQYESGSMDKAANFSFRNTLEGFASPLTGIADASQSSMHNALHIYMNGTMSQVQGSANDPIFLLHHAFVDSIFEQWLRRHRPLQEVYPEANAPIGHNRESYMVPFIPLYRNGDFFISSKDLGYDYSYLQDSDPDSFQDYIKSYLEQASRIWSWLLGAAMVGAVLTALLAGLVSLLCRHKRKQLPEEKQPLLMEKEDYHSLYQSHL

psoriasis = conditions: topical; three psoriasis patients
[1] = system: seborrheic keratosis lesions; conditions: for clinical improvement: once daily application, calcipotriene 0.005% ointment, imiquimod 5% cream
[2] = system: seborrheic keratosis lesions

- tyrosinase activity (tyrosinase): suppressed
- solubility in water: very hard to dissolve in water
SMILES: C[C@@H]1CC[C@H]2[C@@H](C)C(=O)O[C@@H]3O[C@@]4(C)CC[C@@H]1[C@]32OO4 [artemisinin]
- melanin synthesis (melanin synthesis): suppressed
- treatment of psoriasis (psoriasis): successfully

- solubility in water: more water-soluble
SMILES: C[C@H]1[C@H](OC(=O)CCC(=O)O)O[C@@H]2O[C@@]3(C)CC[C@H]4[C@H](C)CC[C@@H]1[C@@]24OO3 [artesunate]

SMILES: C=C1/C(=C\C=C2/CCC[C@]3(C)[C@@H]([C@H](C)/C=C/[C@@H](O)C4CC4)CC[C@@H]23)C[C@@H](O)C[C@@H]1O [calcipotriene]
- clinical improvement ([1]; tazarotene 0.1% cream): did not result in any clinical improvement

- solubility in water: more water-soluble
SMILES: C[C@H]1[C@@H](O)O[C@@H]2O[C@@]3(C)CC[C@H]4[C@H](C)CC[C@@H]1[C@@]24OO3 [dihydroartemisinin]

SMILES: CC(C)Cn1cnc2c(N)nc3ccccc3c21 [imiquimod]
- clinical improvement ([1]; tazarotene 0.1% cream): did not result in any clinical improvement

SMILES: CCOC(=O)c1ccc(C#Cc2ccc3c(c2)C(C)(C)CCS3)nc1 [tazarotene]
- clinical and histological improvement ([1]; bi-daily application, tazarotene 0.1% cream): less than half the patients
- clinical improvement ([1]; tazarotene 0.1% cream): did not result in any clinical improvement
- patients reporting burning, pruritus and redness (irritation) ([1]; topical tazarotene): ⅔

SMILES: NC(N)=O [urea]
- side effects ([2]; 50% urea under occlusion): no side effects were reported
- thickness of seborrheic keratosis lesions ([2]; 50% urea under occlusion and digitally scraping the lesions, lesions did persist albeit with reduced size): some reduction of the thickness
